From patent publication US10759796B2, “CXCR4 inhibitors and uses thereof” (X4 Pharmaceuticals, Inc., priority 2016, dated 2020) come the findings set out here.

One data set in a line: in vitro. The following applies: human, Caco-2, pH 7.4. In short, it runs like this: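 Compounds at 10 μM in HBSS pH 7.4 (0.1–0.3% DMSO) were dosed on Caco-2 monolayers, apical-to-basolateral and basolateral-to-apical, for 90 min at 37 °C, in duplicate. Monolayer integrity was checked by TEER and lucifer yellow flux, read by fluorescence at 485/535 nm. Compound was quantified by LC-MS/MS and Papp calculated.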

Data set [1] in a line: Fraction of drug unbound to brain proteins, rat. The format is in vitro ADME. The following applies: read-out: Fu (b).
A short description of data set [2]: Mouse brain uptake assay, 0-24 h, 4 time points. The format is in vivo. Particulars: male, 3 mg/kg IV, 4 time points; for Kp / Kp uu: CD1, brain and plasma; for Kp / Kp uu / clearance / half-life: Mouse; for clearance / half-life: CD1, plasma; for half-life: read-out: t½ (converted). The method, then: The study design (9 animals) consisted of administrating the drug (IV: 3 mg/kg (5 mL/kg) via tail vein injection) and collecting samples at terminal bleeding for plasma and brain at 0.083, 0.5 and 1 h. The blood collection was performed as follows: the animal was restrained manually and approximately 150 μL blood/time point was collected into a dipotassium EDTA tube via retro orbital puncture under anesthesia with isoflurane. The blood sample was put on ice and centrifuged to obtain a plasma sample (2000 g, 5 min under 4° C.) within 15 minutes. The brain collection was performed as follows: a mid-line incision was made in the animal's scalp and the skin was retracted. Using small bone cutters and rongeurs, the skull overlying the brain was removed. The brain was removed using a spatula and the brain rinsed with cold saline. The brain was placed in screw-top tubes, and the tubes were stored at −70° C. until analysis. The IV dosing solution was prepared in 50 mM citrate buffer (pH 4.0) at 0.6 mg/mL.
An aliquot of 30 μL sample was added to 150 μL MeCN containing 50 ng/mL IS (Dexamethasone). The mixture was vortexed for 5 min and centrifuged at 14,000 rpm for 5 min. An aliquot of 5 μL supernatant was injected for LC-MS/MS analysis.
An aliquot of 30 μL brain homogenate (brain:PBS=1:3, w/v) sample was added to 150 μL IS in ACN (Dexamethasone, 50 ng/mL). The mixture was vortexed for 5 min and centrifuged at 14,000 rpm for 5 min. An aliquot of 5 μL supernatant was injected for LC-MS/MS analysis.
The sample analysis was performed on LCMS/MS-003 (API4000, triple quadruple) under the following conditions: positive ion, ESI, MRM detection using dexamethasone as internal standard. HPLC conditions: mobile phase A: H2O (0.025% formic acid (FA) with 1 mM NH4OAc); mobile phase B: MeOH (0.025% FA with 1 mM NH4OAc) on Waters X-Bridge C18 (2.1×50 mm, 2.5 μm) column at 60° C.
A similar experiment was performed with 4 time points taken from 0-24 h.

[3] abbreviates: CD1, Mouse brain, read-out: AUClast (b).
[4] abbreviates: CD1, Mouse plasma, read-out: AUClast (p).

The structures appear in SMILES notation. Read-outs that look alike come from different tables or passages of the source.

Regarding `CN1CCN(c2cccc3nc([C@H]4CCC[C@@H](c5ncccc5Cl)N4)cn23)CC1` (racemic) [Compound I-149], in “in vitro”, the Papp A→B (as a rule, how fast a substance crosses the layer from the apical side) at 90 min, 10 μM fell in the range of 10 to 30 ×10⁻⁶ cm/s; the Papp B→A (commonly how fast a substance crosses the layer from the basolateral side) at 90 min, 10 μM was 10 to 30 ×10⁻⁶ cm/s; the efflux ratio (as a rule, the permeability from basolateral to apical divided by that in the opposite direction, in the common usage) at 90 min, 10 μM lay in the range of 0.1 to 10. Besides, in data set [1], the fraction unbound came out at 0.038.

For `CCN1CCN(c2cccc3nc([C@H]4CCC[C@@H](c5ncccc5C)N4C)c(Br)n23)CC1` [Compound I-19], in “in vitro”, the Papp A→B at 90 min, 10 μM was 0.1 to 10 ×10⁻⁶ cm/s; the Papp B→A at 90 min, 10 μM was 0.1 to 10 ×10⁻⁶ cm/s; the efflux ratio at 90 min, 10 μM was in the range of 0.1 to 10.

For `Cc1cccnc1[C@@H]1CCC[C@H](c2nc3cccc(N4CCN(C(C)C)CC4)n3c2Br)N1C` [Compound I-20], in the data set “in vitro”, the Papp A→B at 90 min, 10 μM is 0.1 to 10 ×10⁻⁶ cm/s; the Papp B→A at 90 min, 10 μM is 0.1 to 10 ×10⁻⁶ cm/s; the efflux ratio at 90 min, 10 μM lay in the range of 0.1 to 10.

For `CN1CCN(c2cccc3nc([C@H]4CCC[C@@H](c5ncccc5Cl)N4)cn23)CC1` (single isomer, unassigned) [Compound I-188], in the data set “in vitro”, the Papp A→B at 90 min, 10 μM is 10 to 30 ×10⁻⁶ cm/s; the Papp B→A at 90 min, 10 μM lay in the range of 10 to 30 ×10⁻⁶ cm/s; the efflux ratio at 90 min, 10 μM fell in the range of 0.1 to 10. Besides, the fraction unbound in data set [1] is 0.057.

Regarding `Cc1cccnc1[C@@H]1CCC[C@H](c2cn3c(N4CCN(C)CC4)cccc3n2)N1` [Compound I-187], in “in vitro”, the Papp A→B at 90 min, 10 μM was 0.1 to 10 ×10⁻⁶ cm/s; the Papp B→A at 90 min, 10 μM lay within 10 to 30 ×10⁻⁶ cm/s; the efflux ratio at 90 min, 10 μM was 0.1 to 10. The AUC(0-t) in data set [2] (setting [3]) came to 1360 ng·h/mL. Moreover, the AUC(0-t) in data set [2] (setting [4]) is 1720 ng·h/mL. Further, in data set [2], the Kp (in general, the ratio of the level in a tissue or fluid to that in plasma or blood) was 0.79; the Kp uu came to 0.22; the clearance – broadly, the volume of plasma or blood freed of the substance per unit of time – is 28.7 mL/min/kg; the half-life was 4.72 h.

With `Cc1cccnc1[C@@H]1CCC[C@H](c2nc3cccc(N4CCC(N(C)C)CC4)n3c2Cl)N1C` [Compound I-114], in “in vitro”, the Papp A→B at 90 min, 10 μM lay within 0.1 to 10 ×10⁻⁶ cm/s; the Papp B→A at 90 min, 10 μM was 0.1 to 10 ×10⁻⁶ cm/s; the efflux ratio at 90 min, 10 μM was 0.1 to 10.

On to `Cc1cccnc1[C@@H]1CCC[C@H](c2nc3cccc(N4CCN(C)CC4)n3c2Cl)N1` [Compound I-146], for which, in the data set “in vitro”, the Papp A→B at 90 min, 10 μM lay within 10 to 30 ×10⁻⁶ cm/s; the Papp B→A at 90 min, 10 μM lay in the range of 10 to 30 ×10⁻⁶ cm/s; the efflux ratio at 90 min, 10 μM lay within 0.1 to 10. Further, the AUC(0-t) in data set [2] (setting [3]) is 34800 ng·h/mL. For the same compound, the AUC(0-t) in data set [2] (setting [4]) worked out at 6590 ng·h/mL. Moreover, in data set [2], the Kp was determined as 5.29, the Kp uu stood at 0.6, the clearance was 7.22 mL/min/kg and the half-life was 6.02 h. Besides, in data set [1], the fraction unbound came to 0.007.

As for `Cc1cccnc1[C@@H]1CCC[C@H](c2nc3cccc(N4CCN(C)CC4)n3c2Cl)N1C` [Compound I-18], in the data set “in vitro”, the Papp A→B at 90 min, 10 μM fell in the range of 0.1 to 10 ×10⁻⁶ cm/s; the Papp B→A at 90 min, 10 μM lay in the range of 0.1 to 10 ×10⁻⁶ cm/s; the efflux ratio at 90 min, 10 μM lay in the range of 0.1 to 10.

`Cc1cccnc1[C@@H]1CCC[C@H](c2cn3c(-c4cccnc4)cccc3n2)N1C` [Compound I-6]: in the data set “in vitro”, the Papp A→B at 90 min, 10 μM lay in the range of 10 to 30 ×10⁻⁶ cm/s; the Papp B→A at 90 min, 10 μM was in the range of 10 to 30 ×10⁻⁶ cm/s; the efflux ratio at 90 min, 10 μM is 0.1 to 10. The AUC(0-t) in data set [2] (setting [3]) is 3170 ng·h/mL. In data set [2] (setting [4]), the AUC(0-t) is 1040 ng·h/mL. In data set [2], the Kp is 3.05, the clearance is 48.3 mL/min/kg and the half-life was 3.6 h.

As for `CN1CCN(c2cccc3nc([C@@H]4CCC[C@H](c5ncccc5Cl)N4)cn23)CC1` (single isomer, unassigned) [Compound I-189], in the data set “in vitro”, the Papp A→B at 90 min, 10 μM was in the range of 10 to 30 ×10⁻⁶ cm/s; the Papp B→A at 90 min, 10 μM was in the range of 10 to 30 ×10⁻⁶ cm/s; the efflux ratio at 90 min, 10 μM lay in the range of 0.1 to 10. Besides, in data set [1], the fraction unbound is 0.061.
